Measurements taken from patent US20150315188A1, “COMPOUNDS AND METHODS FOR TREATMENT OF HYPERTENSION” (MEDIVATION TECHNOLOGIES, INC., priority 2012, published 2015).

Experiments:
[1] = target: T1, Human adrenergic α2B receptor (Homo sapiens, UniProt P18089); experiment: Radioligand binding, adrenergic α2B (Protocol Group B); set-up: purchased Milipore (Millipore); conditions: for inhibition at 0.01 µM / Percentage inhibition of ligand binding, Adrenergic α2B (10 nM): 10 nM compound; for inhibition at 0.01 µM: read-out: Percentage inhibition of ligand binding, Adrenergic α2B (10 nM); for inhibition at 0.03 µM / Percentage inhibition of ligand binding, Adrenergic α2B (30 nM): 30 nM compound; for inhibition at 0.03 µM: read-out: Percentage inhibition of ligand binding, Adrenergic α2B (30 nM); for inhibition at 0.1 µM: read-out: Percentage inhibition of ligand binding, Adrenergic α2B (0.1 μM); for Ki: estimated Ki, read-out: Ki α2B; for Percentage inhibition of ligand binding, Adrenergic α2B (10 nM): 0.01 µM; for Percentage inhibition of ligand binding, Adrenergic α2B (30 nM): 0.03 µM
T1 sequence (P18089 1-450): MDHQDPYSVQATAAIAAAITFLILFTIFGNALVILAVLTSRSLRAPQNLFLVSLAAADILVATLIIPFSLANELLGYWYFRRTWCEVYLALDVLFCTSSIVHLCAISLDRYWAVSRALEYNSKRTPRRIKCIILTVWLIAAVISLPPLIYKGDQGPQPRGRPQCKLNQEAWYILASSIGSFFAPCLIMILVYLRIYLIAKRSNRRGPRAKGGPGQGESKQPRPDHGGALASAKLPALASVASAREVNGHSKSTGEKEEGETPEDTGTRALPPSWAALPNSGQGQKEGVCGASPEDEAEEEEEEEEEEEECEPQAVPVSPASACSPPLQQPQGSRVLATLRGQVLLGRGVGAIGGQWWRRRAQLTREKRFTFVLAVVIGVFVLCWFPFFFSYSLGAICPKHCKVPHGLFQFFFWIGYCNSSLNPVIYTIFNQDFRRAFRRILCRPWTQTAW
Method in brief: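 Compounds at various concentrations in 1% DMSO were tested on recombinant membranes in Tris-HCl pH 7.4 buffer containing MgCl2, CaCl2 and 0.2% BSA.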

[2] = target: T2, Human adrenergic α2A receptor (Homo sapiens, UniProt P08913); experiment: Radioligand binding, adrenergic α2A (Protocol Group B); set-up: purchased Milipore (Millipore); conditions: for inhibition at 0.1 µM / Percentage inhibition of ligand binding, Adrenergic α2A (0.1 μM): 0.1 μM compound; for inhibition at 0.1 µM / inhibition at 0.3 µM / Ki / Percentage inhibition of ligand binding, Adrenergic α2A (0.1 μM) / Percentage inhibition of ligand binding, Adrenergic α2A (0.3 μM): Protocol Group B; for inhibition at 0.1 µM: read-out: Percentage inhibition of ligand binding, Adrenergic α2A (0.1 μM); for inhibition at 0.3 µM / Percentage inhibition of ligand binding, Adrenergic α2A (0.3 μM): 0.3 μM compound; for inhibition at 0.3 µM: read-out: Percentage inhibition of ligand binding, Adrenergic α2A (0.3 μM); for inhibition at 1 µM: 1 μM compound, read-out: Percentage inhibition of ligand binding, Adrenergic α2A, 1 μM; for inhibition at 3.2 µM: 3.2 μM compound, read-out: Percentage inhibition of ligand binding, Adrenergic α2A, 3.2 μM; for Ki: estimated Ki
T2 sequence (P08913 1-465): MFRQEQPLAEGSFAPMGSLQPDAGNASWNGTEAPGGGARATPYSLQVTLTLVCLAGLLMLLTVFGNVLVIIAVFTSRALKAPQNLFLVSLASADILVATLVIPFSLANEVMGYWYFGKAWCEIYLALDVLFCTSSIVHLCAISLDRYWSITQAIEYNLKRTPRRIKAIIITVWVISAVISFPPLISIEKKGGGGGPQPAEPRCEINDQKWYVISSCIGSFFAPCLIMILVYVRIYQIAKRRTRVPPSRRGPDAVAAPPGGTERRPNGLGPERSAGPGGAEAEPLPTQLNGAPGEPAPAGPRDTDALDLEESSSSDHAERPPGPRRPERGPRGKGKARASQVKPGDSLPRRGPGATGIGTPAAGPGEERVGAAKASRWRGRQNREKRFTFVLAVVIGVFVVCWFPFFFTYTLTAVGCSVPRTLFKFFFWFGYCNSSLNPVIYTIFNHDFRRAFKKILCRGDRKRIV
Method in brief: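 Compounds (1% DMSO vehicle, various concentrations) competed against 2 nM [^3H]MK-912 on recombinant receptor membranes for 60 min at 25° C, Tris-HCl pH 7.4 buffer with Mg2+, Ca2+, BSA. Bound radioligand filtered and counted; 10 μM rauwolscine set nonspecific binding. Values: percent inhibition of specific binding or estimated Ki.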

[3] = target: T3, Human adrenergic α1B receptor (Homo sapiens, UniProt P35368); experiment: β-Arrestin GPCR functional assay, adrenergic α1B (Protocol B); assay type: cell-based; conditions: for inhibition at 0.1 µM: 0.1 μM compound; for IC50: β-arrestin, antagonist vs nor-epinephrine EC80
T3 sequence (P35368 1-520): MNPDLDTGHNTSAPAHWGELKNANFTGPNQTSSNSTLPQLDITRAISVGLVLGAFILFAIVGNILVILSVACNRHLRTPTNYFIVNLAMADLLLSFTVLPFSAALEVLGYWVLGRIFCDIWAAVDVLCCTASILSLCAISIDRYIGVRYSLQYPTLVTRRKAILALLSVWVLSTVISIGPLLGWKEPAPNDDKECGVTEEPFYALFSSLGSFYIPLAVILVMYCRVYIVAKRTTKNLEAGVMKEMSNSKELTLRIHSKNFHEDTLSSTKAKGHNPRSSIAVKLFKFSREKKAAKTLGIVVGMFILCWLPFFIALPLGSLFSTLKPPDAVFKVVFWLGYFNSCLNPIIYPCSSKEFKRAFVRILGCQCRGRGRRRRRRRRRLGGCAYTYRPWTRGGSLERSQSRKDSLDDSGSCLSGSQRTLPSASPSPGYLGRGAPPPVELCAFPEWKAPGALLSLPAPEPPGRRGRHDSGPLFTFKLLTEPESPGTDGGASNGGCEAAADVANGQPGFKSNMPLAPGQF
Experimental: To evaluate the activity of compounds in β-Arrestin GPCR functional assays, recombinant CHO cell line (DiscoveRX), over expressed with human adrenergic α1B receptor were used. The experiment was done with a kit of DiscoveRX as per recommended protocol of the supplier. Cells were harvested from culture flask using cell dissociation solution (CDS) and plated at a density of 12,000 cells/well in CP reagent (supplied with the kit) in a half area 96-well white polystyrene plate. After 24 h incubation at 37° C., compounds at various concentrations in 1% (final) DMSO were charged to the cells for 30 min at 37° C. Active nor-epinephrine (-NE) at its EC80 concentrations (50 nM) were then added to the cells and incubated for another 90 min at 37° C. Detection mix was prepared by mixing Path Hunter cell assay buffer, Emerald II solution and Galactone star solution in a ratio of 19:5:1 and incubated with the cells for 60 min at RT in the dark. The reading was taken in Envision at luminescence mode. Biochemical assay results are presented as the percent Inhibition in Table B2a, or IC50 values in Table B2b.

[4] = 0.1 μM compound, Protocol Group B
[5] = nor-epinephrine at EC80 (50 nM), read-out: Percentage inhibition, Adrenergic α1B
[6] = 3.2 nM compound, concentration series, 0.0032 µM

Structure (SMILES)	inhibition at 0.01 µM ([1]; Protocol Group B) [%]	inhibition at 0.03 µM ([1]; Protocol Group B) [%]	inhibition at 0.1 µM [1, 4] [%]	Ki ([1]; Protocol Group B) [nM]	inhibition at 0.1 µM [2] [%]	inhibition at 0.3 µM [2] [%]	Ki [2] [nM]	IC50 [3] [nM]	Percentage inhibition of ligand binding, Adrenergic α2A (0.1 μM) [2] [%]	Percentage inhibition of ligand binding, Adrenergic α2A (0.3 μM) [2] [%]	Percentage inhibition of ligand binding, Adrenergic α2B (10 nM) ([1]; Protocol Group B) [%]	Percentage inhibition of ligand binding, Adrenergic α2B (30 nM) ([1]; Protocol Group B) [%]	further results
Cc1ccc2c(c1)c1c(n2CC(O)c2ccncc2)CC[N+]2([O-])CCCC12 (stereo not shown) [compound 23, 7-(2-hydroxy-2-(pyridin-4-yl)ethyl)-10-methyl-1,2,3,4,5,6,7,11c-octahydroindolizino[7,8-b]indole 4-oxide]	65	88	92	2.24	55	64	20.8	1210					inhibition at 0.0001 µM ([1]; 0.1 nM compound, concentration series, read-out: Percentage inhibition of ligand binding, Adrenergic α2B, 0.1 nM): 13%; inhibition at 0.00032 µM ([1]; 0.32 nM compound, concentration series, read-out: Percentage inhibition of ligand binding, Adrenergic α2B, 0.32 nM): 5%; inhibition at 0.001 µM ([1]; 1 nM compound, concentration series, read-out: Percentage inhibition of ligand binding, Adrenergic α2B, 1 nM): 2%; inhibition at 0.0032 µM ([1]; 3.2 nM compound, concentration series, read-out: Percentage inhibition of ligand binding, Adrenergic α2B, 3.2 nM): 40%; inhibition at 0.32 µM ([1]; 0.32 μM compound, concentration series, read-out: Percentage inhibition of ligand binding, Adrenergic α2B, 0.32 μM): 105%; inhibition at 0.0032 µM ([2]; 3.2 nM compound, concentration series, read-out: Percentage inhibition of ligand binding, Adrenergic α2A, 3.2 nM): 14%; inhibition at 0.01 µM ([2]; 10 nM compound, concentration series, read-out: Percentage inhibition of ligand binding, Adrenergic α2A, 10 nM): 21%; inhibition at 0.03 µM ([2]; 0.03 μM compound, concentration series, read-out: Percentage inhibition of ligand binding, Adrenergic α2A, 0.03 μM): 37%; inhibition at 0.32 µM ([2]; 0.32 μM compound, concentration series, read-out: Percentage inhibition of ligand binding, Adrenergic α2A, 0.32 μM): 67%; inhibition at 1 µM ([2]; concentration series): 76%; inhibition at 3.2 µM ([2]; concentration series): 88%; inhibition at 10 µM ([2]; 10 μM compound, concentration series, read-out: Percentage inhibition of ligand binding, Adrenergic α2A, 10 μM): 92%; inhibition at 0.1 µM [3, 5]: 15%; inhibition at 0.3 µM ([3]; 0.3 μM compound, nor-epinephrine at EC80 (50 nM), read-out: Percentage inhibition, Adrenergic α1B): 15%
Cc1ccc2c(c1)c1c(n2CC(OC2CCCC2)c2ccncc2)CCN(C)C1 (single isomer, unassigned) [35a]	63	86	96	2.9			28.5	672	67	86			
CC(O)(Cn1c2c(c3cc(F)ccc31)C1CCCN1CC2)c1ccncc1 (single isomer, unassigned) [31a]	72	90	96	2.2	33	48	279	982					

These reach a lower Ki ([1]; Protocol Group B). Values come first.

inhibition at 0.01 µM ([1]; Protocol Group B) [%]	inhibition at 0.03 µM ([1]; Protocol Group B) [%]	inhibition at 0.1 µM [1, 4] [%]	Ki ([1]; Protocol Group B) [nM]	inhibition at 0.1 µM [2] [%]	inhibition at 0.3 µM [2] [%]	Ki [2] [nM]	IC50 [3] [nM]	Percentage inhibition of ligand binding, Adrenergic α2A (0.1 μM) [2] [%]	Percentage inhibition of ligand binding, Adrenergic α2A (0.3 μM) [2] [%]	Percentage inhibition of ligand binding, Adrenergic α2B (10 nM) ([1]; Protocol Group B) [%]	Percentage inhibition of ligand binding, Adrenergic α2B (30 nM) ([1]; Protocol Group B) [%]	Structure (SMILES)	further results
94	99	100	1		87	16.2	107	72				Cc1cc(C)c2c(c1)c1c(n2CC(C)(O)c2ccncc2)CCN2CCCC12 (single isomer, unassigned) [19a]	inhibition at 32 pM ([1]; 0.032 nM compound, concentration series, read-out: Percentage inhibition of ligand binding, Adrenergic α2B, 0.032 nM): 3%; Percentage inhibition of ligand binding, Adrenergic α2B, 0.1 nM ([1]; 0.1 nM compound, concentration series, 0.0001 µM): 8%; Percentage inhibition of ligand binding, Adrenergic α2B, 0.32 nM ([1]; 0.32 nM compound, concentration series, 0.00032 µM): 9%; Percentage inhibition of ligand binding, Adrenergic α2B, 1 nM ([1]; 1 nM compound, concentration series, 0.001 µM): 18%; Percentage inhibition of ligand binding, Adrenergic α2B, 3.2 nM [1, 6]: 64%; inhibition at 0.032 µM ([1]; 0.032 μM compound, concentration series, read-out: Percentage inhibition of ligand binding, Adrenergic α2B, 0.032 μM): 99%; inhibition at 0.001 µM ([2]; 1 nM compound, concentration series, read-out: Percentage inhibition of ligand binding, Adrenergic α2A, 1 nM): 3%; Percentage inhibition of ligand binding, Adrenergic α2A, 3.2 nM [2, 6]: 0%; Percentage inhibition of ligand binding, Adrenergic α2A, 10 nM ([2]; 10 nM compound, concentration series, 0.01 µM): 22%; Percentage inhibition of ligand binding, Adrenergic α2A, 0.032 μM ([2]; 0.032 μM compound, concentration series, 0.032 µM): 49%; Percentage inhibition of ligand binding, Adrenergic α2A, 0.32 μM ([2]; 0.32 μM compound, concentration series, 0.32 µM): 92%; inhibition at 1 µM ([2]; concentration series): 98%; inhibition at 3.2 µM ([2]; concentration series): 100%; inhibition at 0.1 µM [3, 5]: 45%; Percentage inhibition, Adrenergic α1B ([3]; 0.3 μM compound, nor-epinephrine at EC80 (50 nM)): 74%
			0.69			3.1	102	79	84	84	83	OC(Cn1c2c(c3cc(Cl)cc(F)c31)C1CCCN1CC2)c1ccncc1 (single isomer, unassigned) [135b]	
95	99	100	0.75	72	83	6.7	47					Cc1cc2c3c(n(CC(C)(O)c4ccncc4)c2cc1Cl)CCN1CCCC31 (single isomer, unassigned) [50a]	
			0.93			28.4	283	67	86	95	97	Cc1cc(Cl)c2c(c1)c1c(n2CC(C)(O)c2ccncc2)CCN2CCCC12 (single isomer, unassigned) [91b]	
			0.89			16.4	123	83	87	92	93	Cc1ccc2c(c1)c1c(n2CC(C)(O)c2ccnc(F)c2)CCN2CCCC12 (single isomer, unassigned) [48b]	Percentage inhibition of ligand binding, Adrenergic α2B (0.1 μM) ([1]; 0.1 μM compound, Protocol Group B, 0.1 µM): 91%
